This assay deals with HUVEC cells. Kind of assay: Aβ accumulation in HUVEC cells treated with phosphoramidon. It is filed as cell-based, human. The conditions noted are these: high doses of phosphoramidon. The protocol:
Human and guinea pig Aβ40 or Aβ42 was measured in plasma by sandwich ELISA as previously described (Suzuki et al., 1994, Science, 264:1336-1340) using the BAN-50/BA-27 or BAN-50/BC-05 antibody systems, respectively (Takeda; Japan). Hamster Aβ40- or Aβ42-derived from CHO cells was measured using the BNT-77/BA-27 or BNT-77/BC-05 antibody systems, respectively. Aβ concentration in samples was determined by comparison to synthetic Aβ40 or Aβ42 standards (Bachem, Switzerland). Data was obtained from triplicate wells.
In particular, the sandwich ELISA used herein was performed as follows: 96-well microtiter plates were coated overnight at 4° C. with 100 μl of a 5 μg/ml dilution of primary antibody in sodium carbonate coating buffer (SCCB; 0.1 M Na2CO3, pH 9.6). […] Plates were read at 450 nm in a SpectraMax Plus spectrophotometer (Molecular Devices; Sunnyvale, Calif.) and analyzed by SOFTmax® PRO software. Aβ40 or Aβ42 were quantitated by comparison with the values obtained for each synthetic Aβ standard from the same plate.
Cells were passaged into 6-well plates one day prior to treatment and grown to confluence. […] After treatment, the culture medium was harvested, spun at 14,000 xg, and the supernatant analyzed for Aβ40 or Aβ42 using sandwich ELISA and for secreted APP using Western blot. […]

`CC(C)C[C@H](NP(=O)(O)O[C@@H]1O[C@@H](C)[C@H](O)[C@@H](O)[C@H]1O)C(=O)N[C@@H](Cc1c[nH]c2ccccc12)C(=O)O` [phosphoramidon]: the Aβ accumulation entry was “virtually undetectable levels of Aβ accumulation unless treated with high doses of phosphoramidon”.

Source of the values: US6699681B2, “Endothelin converting enzymes and the amyloid β peptide” (Mayo Foundation for Medical Education and Research, priority 2000, dated 2004).
